Reference: paper PMC10850501 (Nature Communications, 2024)
Values joined by “and” are separate entries in the source; they are usually repeats but may differ in a detail not shown here. Equal values may be shown once. Read-outs that look alike come from different tables or passages of the source. Peptide text beside a SMILES is read from it.

How the values were obtained:
[1] = tested on: SARS-CoV-2 live virus (B.1 lineage), Vero E6 cells; type: cell-based
[2] = tested on: SARS-CoV-2 Spike pseudotyped viruses, HEK-293T-ACE2 cells; type: cell-based, SARS-CoV-2 (Wuhan-Hu-1 Spike); conditions: for inhibition of pseudovirus, in words: 10 µM
Cytocompatibility (CCK8) = type: cell-based, human; conditions: human, A549 cells, read-out: cytocompatibility, normalized to serum free media; for viability at 6 h, 10 µM: 0.01 mM peptide; for viability at 6 h, 100 µM: 0.1 mM peptide; for viability at 6 h, 1000 µM: 1 mM peptide
Method: Cytocompatibility of the peptides was evaluated at 1, 0.1, and 0.01 mM with A549 cells (ATCC CCL-185) cultured in complete media consisting of 90% F-12K and 10% FBS. The A549 cells were utilized after their first passage and seeded at 10,000 cells/well in a 96-well plate for 24 hours. The conditions were prepared in serum-free A549 media and introduced into the wells for 6 hours, after which the condition media were aspirated, the wells were washed once with PBS, and 10 µL of CCK8 was added to 100 µL of PBS[32]. The plate was incubated for 1 hour and read on a Tecan M200 Infinite plate reader at an absorbance of 450 nm with a reference wavelength of 650 nm. The results were analyzed and normalized to the serum-free media control[28],[32],[76].

Compound | live virus inhibition, in words [1] | Relative PFU ([1]; 10 µM) | Normalized, Average [2] | inhibition of pseudovirus, in words [2] | Comparative, Average [1] | live virus plaque inhibition, in words [1] | viability at 6 h, 10 µM (Cytocompatibility (CCK8); replicate 1, CCK8, 6 h) | viability at 6 h, 10 µM (Cytocompatibility (CCK8); replicate 2, CCK8, 6 h) | viability at 6 h, 100 µM (Cytocompatibility (CCK8); replicate 1, CCK8, 6 h) | viability at 6 h, 100 µM (Cytocompatibility (CCK8); replicate 2, CCK8, 6 h) | viability at 6 h, 100 µM (Cytocompatibility (CCK8); replicate 3, CCK8, 6 h) | viability at 6 h, 1000 µM (Cytocompatibility (CCK8); replicate 1, CCK8, 6 h exposure, absorbance 450 nm) | viability at 6 h, 1000 µM (Cytocompatibility (CCK8); replicate 2, CCK8, 6 h)
CC[C@H](C)[C@H](NC(=O)CNC(=O)[C@H](CCC(=O)O)NC(=O)[C@H](CC(C)C)NC(=O)[C@H](CO)NC(=O)[C@H](CC(C)C)NC(=O)[C@H](CO)NC(=O)[C@H](CC(C)C)NC(=O)[C@H](CO)NC(=O)[C@H](CC(C)C)NC(=O)[C@H](CO)NC(=O)[C@H](CC(C)C)NC(=O)[C@H](CO)NC(=O)[C@H](CC(C)C)NC(=O)[C@H](CO)NC(=O)[C@H](CCC(=O)O)NC(C)=O)C(=O)N[C@@H](CCC(=O)O)C(=O)N[C@@H](CCC(=O)O)C(=O)N[C@@H](CCC(N)=O)C(=O)N[C@@H](C)C(=O)N[C@@H](CCCCN)C(=O)N[C@H](C(=O)N[C@@H](Cc1ccccc1)C(=O)N[C@@H](CC(C)C)C(=O)N[C@@H](CC(=O)O)C(=O)N[C@@H](CCCCN)C(=O)N[C@@H](Cc1ccccc1)C(=O)N[C@@H](CC(N)=O)C(=O)N[C@@H](Cc1c[nH]cn1)C(=O)N[C@@H](CCC(=O)O)C(=O)N[C@@H](C)C(=O)N[C@@H](CCC(=O)O)C(=O)N[C@@H](CC(=O)O)C(=O)N[C@@H](CC(C)C)C(=O)N[C@@H](Cc1ccccc1)C(=O)N[C@@H](Cc1ccc(O)cc1)C(=O)N[C@@H](CCC(N)=O)C(=O)N[C@@H](CO)C(N)=O)[C@@H](C)O [ESBP1] | significant improvement in viral inhibition | 51.2258 and 58.5437 and 80.4976 | 0.2588 | inhibited pseudovirus to a similar degree | – | – | – | – | – | – | – | – | –
CC[C@H](C)[C@H](NC(=O)CNC(=O)[C@H](CCCCN)NC(=O)[C@H](CC(C)C)NC(=O)[C@H](CO)NC(=O)[C@H](CC(C)C)NC(=O)[C@H](CO)NC(=O)[C@H](CC(C)C)NC(=O)[C@H](CO)NC(=O)[C@H](CC(C)C)NC(=O)[C@H](CO)NC(=O)[C@H](CC(C)C)NC(=O)[C@H](CO)NC(=O)[C@H](CC(C)C)NC(=O)[C@H](CO)NC(=O)[C@H](CCCCN)NC(C)=O)C(=O)N[C@@H](CCC(=O)O)C(=O)N[C@@H](CCC(=O)O)C(=O)N[C@@H](CCC(N)=O)C(=O)N[C@@H](C)C(=O)N[C@@H](CCCCN)C(=O)N[C@H](C(=O)N[C@@H](Cc1ccccc1)C(=O)N[C@@H](CC(C)C)C(=O)N[C@@H](CC(=O)O)C(=O)N[C@@H](CCCCN)C(=O)N[C@@H](Cc1ccccc1)C(=O)N[C@@H](CC(N)=O)C(=O)N[C@@H](Cc1c[nH]cn1)C(=O)N[C@@H](CCC(=O)O)C(=O)N[C@@H](C)C(=O)N[C@@H](CCC(=O)O)C(=O)N[C@@H](CC(=O)O)C(=O)N[C@@H](CC(C)C)C(=O)N[C@@H](Cc1ccccc1)C(=O)N[C@@H](Cc1ccc(O)cc1)C(=O)N[C@@H](CCC(N)=O)C(=O)N[C@@H](CO)C(N)=O)[C@@H](C)O [KSBP1] | – | – | 0.8193 | significant decrease in inhibitory effect | – | – | – | – | – | – | – | – | –
CC[C@H](C)[C@H](NC(=O)[C@H](Cc1ccc(O)cc1)NC(=O)[C@@H](NC(=O)[C@H](CCCCN)NC(=O)[C@H](Cc1ccc(O)cc1)NC(=O)[C@H](CCC(N)=O)NC(C)=O)[C@@H](C)O)C(=O)N[C@@H](CC(=O)O)C(=O)N[C@@H](CCCCN)C(=O)N[C@@H](CC(N)=O)C(=O)N[C@@H](CC(N)=O)C(=O)N[C@@H](Cc1c[nH]cn1)C(=O)N[C@@H](Cc1ccc(O)cc1)C(=O)N[C@@H](C)C(=O)N[C@@H](CCC(=O)O)C(=O)N[C@@H](CC(=O)O)C(=O)N[C@@H](CCC(=O)O)C(=O)N[C@@H](CCCNC(=N)N)C(=O)N[C@@H](Cc1ccc(O)cc1)C(=O)N[C@@H](CCCCN)C(N)=O [SBP3] (Ac-QYKTYIDKNNHYAEDERYK-NH2) | – | – | – | – | 72.3704 | no major differences | 104% | 96.9% | 77.8% | 94.4% | 95.5% | 144% | 139%
